From ChEMBL document CHEMBL5214911, “Chemical update on the potential for serotonin 5-HT6 and 5-HT7 receptor agents in the treatment of Alzheimer's disease” (Bioorg Med Chem Lett, 2021)

Legend:
[1] = target: 5-hydroxytryptamine receptor 7 (Homo sapiens, UniProt P34969); experiment: Binding affinity to 5-HT7R (unknown origin) assessed as inhibition constant
[2] = target: T1, 5-hydroxytryptamine receptor 6 (Homo sapiens, UniProt P50406); experiment: Displacement of [125I]cAMP-tracer from 5-HT6R in human HeLa cells assessed as measuring cAMP level incubated for 15 mins by radioimmunoassay; type: cell-based
T1 sequence (P50406 whole entry): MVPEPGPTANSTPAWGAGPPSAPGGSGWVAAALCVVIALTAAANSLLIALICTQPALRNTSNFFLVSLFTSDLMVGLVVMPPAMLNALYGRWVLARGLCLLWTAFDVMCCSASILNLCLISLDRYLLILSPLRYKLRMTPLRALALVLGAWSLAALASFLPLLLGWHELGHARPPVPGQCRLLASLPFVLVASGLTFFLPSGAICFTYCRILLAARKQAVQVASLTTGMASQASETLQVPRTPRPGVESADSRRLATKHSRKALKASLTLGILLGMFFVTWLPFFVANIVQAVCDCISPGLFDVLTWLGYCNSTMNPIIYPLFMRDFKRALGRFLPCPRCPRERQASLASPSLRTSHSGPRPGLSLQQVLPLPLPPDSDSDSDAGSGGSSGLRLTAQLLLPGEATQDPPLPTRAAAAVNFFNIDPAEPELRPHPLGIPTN

[3] = target: T1, 5-hydroxytryptamine receptor 6; experiment: Binding affinity to 5-HT6R (unknown origin) assessed as inhibition constant
[4] = target: T2, 5-hydroxytryptamine receptor 1A (Homo sapiens, UniProt P08908); experiment: Binding affinity to 5-HT1A (unknown origin) assessed as inhibition constant
T2 sequence (P08908 whole entry): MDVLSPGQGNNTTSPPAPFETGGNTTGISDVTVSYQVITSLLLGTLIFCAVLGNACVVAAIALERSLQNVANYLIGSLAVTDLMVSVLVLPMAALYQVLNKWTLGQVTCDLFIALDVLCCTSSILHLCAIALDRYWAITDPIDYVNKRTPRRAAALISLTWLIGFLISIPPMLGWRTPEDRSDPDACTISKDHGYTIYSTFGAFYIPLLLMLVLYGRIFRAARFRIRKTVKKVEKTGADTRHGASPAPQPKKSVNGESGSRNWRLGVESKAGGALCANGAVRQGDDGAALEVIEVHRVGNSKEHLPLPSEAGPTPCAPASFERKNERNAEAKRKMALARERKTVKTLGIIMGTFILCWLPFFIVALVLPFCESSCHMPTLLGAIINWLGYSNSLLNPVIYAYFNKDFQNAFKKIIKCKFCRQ

[5] = target: T3, Alpha-2C adrenergic receptor (Homo sapiens, UniProt P18825); experiment: Binding affinity to alpha2C AR (unknown origin) assessed as inhibition constant
T3 sequence (P18825 whole entry): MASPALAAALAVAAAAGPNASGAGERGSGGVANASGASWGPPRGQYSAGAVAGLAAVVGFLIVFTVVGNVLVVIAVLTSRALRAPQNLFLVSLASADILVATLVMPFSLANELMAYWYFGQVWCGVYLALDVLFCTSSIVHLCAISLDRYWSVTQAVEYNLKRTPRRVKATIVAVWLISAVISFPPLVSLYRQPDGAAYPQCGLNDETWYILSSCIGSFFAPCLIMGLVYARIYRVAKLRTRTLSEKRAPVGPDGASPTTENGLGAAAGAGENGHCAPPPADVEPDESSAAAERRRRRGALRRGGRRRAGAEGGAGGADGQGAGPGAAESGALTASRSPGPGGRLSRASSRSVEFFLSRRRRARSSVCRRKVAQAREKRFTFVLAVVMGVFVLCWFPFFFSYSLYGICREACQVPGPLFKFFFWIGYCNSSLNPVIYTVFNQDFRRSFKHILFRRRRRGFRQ

Sequence of 5-hydroxytryptamine receptor 7 (P34969 whole entry): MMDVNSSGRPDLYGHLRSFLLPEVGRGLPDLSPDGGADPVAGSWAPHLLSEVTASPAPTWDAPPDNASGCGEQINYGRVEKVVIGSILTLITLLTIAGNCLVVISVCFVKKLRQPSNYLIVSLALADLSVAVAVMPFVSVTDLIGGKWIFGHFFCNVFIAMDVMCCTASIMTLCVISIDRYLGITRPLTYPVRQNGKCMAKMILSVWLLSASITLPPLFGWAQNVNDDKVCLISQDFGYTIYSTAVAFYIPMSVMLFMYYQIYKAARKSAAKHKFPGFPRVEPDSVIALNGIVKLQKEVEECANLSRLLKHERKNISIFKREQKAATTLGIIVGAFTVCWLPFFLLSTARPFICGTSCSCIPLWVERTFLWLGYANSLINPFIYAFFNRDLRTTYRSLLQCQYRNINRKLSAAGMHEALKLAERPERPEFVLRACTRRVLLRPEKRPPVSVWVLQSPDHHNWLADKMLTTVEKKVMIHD

SMILES | Ki [1] | Ki [3] | Ki [4] | further results
Clc1ccc(-c2nn(Cc3ccccc3)c3c2CCNCC3)cc1 [JNJ-18038683 FREE BASE] | 3 nM | – | – | –
COc1cc(NS(=O)(=O)c2ccc(OC)c(N3CCNCC3)c2)c(Cl)cc1Cl | – | – | – | Ki [2]: 0.98 nM
CCOCC(Oc1c(C)cccc1Cl)N1CCN(c2ccccc2OC)CC1 (stereo not given) | 34 nM | 9620 nM | < 1 nM | –
CCN1CCCC1CNC(=O)c1cc(S(N)(=O)=O)ccc1OC (stereo not given) [SULPIRIDE] | > 3000 nM | – | – | –
CCOCC(Oc1c(C)cccc1C)N1CCN(c2ccccc2OC)CC1 (stereo not given) | 156 nM | 9970 nM | 41 nM | –
O=C1C2C3CCC(C3)C2C(=O)N1CC1CCCCC1CN1CCN(c2nsc3ccccc23)CC1 (stereo not given) | – | – | – | Ki [5]: 11 nM
